From US20250049676A1, “ANTIMICROBIAL SYSTEM WITH INDOLE ALKALOID AND PHENOLIC ACID AND COMPOSITIONS COMPRISING THEM” (Conopco, Inc., d/b/a UNILEVER, priority 2021, published 2025)
Like-named read-outs stand apart in the source and are kept apart here.

Columns and labels:
[1] = system: Enterobacter gergoviae ATCC 33028; experiment: Liquid broth assay (MIC and checkerboard), Enterobacter gergoviae; assay type: cell-based; settings: for MIC: Pluralibacter gergoviae, read-out: minimal inhibitory concentration (MIC); for concentration needed in combination to achieve the inhibitory effect: gramine with syringic acid, concentration of the named component in the mixture
Description: (§1) Naturally derived antimicrobial systems were made, as shown below by combining the indole alkaloid and phenolic acid. Two pools were set up and each pool contained 1 organism. The strains involved were Enterobacter gergoviae ATCC 33028 of the family Pluralibacter gergoviae, a Gram-negative and Aspergillus brasiliensis ATCC 16404. FIC test range was 16 times greater than the projected MIC for each sample.
(§2) The differing behaviors of inhibitory antimicrobials in isolation and mixtures have been widely explored using the concept of the Fractional Concentration and Fractional Inhibitory Concentration (FIC). See for instance JRW Lambert and R Lambert, J. Appl. Microbiol 95, 734 (2003); T. Jadavji, CG Prober and R Cheung, Antibacterial Agents and Chemotherapy 26, 91 (1984), and WO 2004/006876. MIC is the minimum inhibitory concentration a component prevents visible growth of a microbe. The FC and FIC parameters can be defined as follows:
(§3) FC (Component A)=Concentration of Component A tested in the mixture/MIC (Component A tested as a single active)
(§4) FIC (component a)=MIC (component a tested in the mixture)/MIC (component a tested as a single active)
(§5) The interactions between antimicrobials can be additive, synergistic or possibly antagonistic depending on whether the efficacy of the combination is equivalent to, greater than or less than that obtained for the same total concentration of the individual components when tested alone. These relationships can be expressed mathematically by summing the fractional MIC values for all the components present in the mixture to give the “fractional inhibitory index”:
(§6) Such that: • ΣFIC greater than 0.5 corresponds to indifferent, additive or antagonistic activity • ΣFIC less than or equal to 0.5 corresponds to synergistic activity
(§7) Liquid broth assays (MIC and checkerboard) were conducted to identify the minimum concentration(s) of individual and binary combinations of natural preservation materials. A modified methodology to ISO 20776-1:2006 was utilized for the screening as follows. Stock solutions of each preservation chemical at 200 ul/cell (or well) each and 100 ul of broth were created in separate 96-well plates. Each of the two-preservation chemical/broth mixes was then combined in a third 96 well plate at varying concentrations and then inoculated with 1-5×10^6 microorganisms and incubated at 30° C. for 24 hours, after which optical densities at OD600 nm were measured.

[2] = system: Aspergillus brasiliensis ATCC 16404; experiment: Liquid broth assay (MIC and checkerboard), Aspergillus brasiliensis; assay type: cell-based; settings: for MIC: Aspergillus brasiliensis; for concentration needed in combination to achieve the inhibitory effect: gramine with syringic acid, concentration of the named component in the mixture
Description: as §1, §2, §3, §4, §5, §6, §7

Row | Structure (SMILES) | MIC ([1]; ATCC33028, component by itself, MIC = <25% growth vs positive control, 30° C., 24 hours, OD600) [mg/mL] | concentration needed in combination to achieve the inhibitory effect [1] [mg/mL] | MIC ([2]; ATCC16404, component by itself, MIC = <25% growth vs positive control, 30° C., 24 hours, OD600, read-out: MIC) [mg/mL] | concentration needed in combination to achieve the inhibitory effect [2] | MIC ([1]; ATCC33028, 24 h) [mg/mL] | MIC ([2]; ATCC16404, 24 h) [mg/mL]
1 | CN(C)Cc1c[nH]c2ccccc12 [Gramine, 1-(1H-Indol-3-yl)-N,N-dimethylmethanamine] | 6.25 | 0.098 | 12.5 | 1,563 mg/ml | – | –
2 | COc1cc(C(=O)O)cc(OC)c1O [Syringic Acid, 4-Hydroxy-3,5-dimethoxybenzoic acid] | – | 0.781 | – | 6.25 mg/mL | > 50 | > 50
